ON(Cc1ccccc1)Cc1ccccc1
Settings | solubility (mole fraction)
in 1,2,4-trichlorobenzene, 293.75 K | 0.00704
in 1,2,4-trichlorobenzene, 299.15 K | 0.0103
in 1,2,4-trichlorobenzene, 303.25 K | 0.0138
in 1,2,4-trichlorobenzene, 308.45 K | 0.0198
in 1,2,4-trichlorobenzene, 313.15 K | 0.0263
in 1,2,4-trichlorobenzene, 318.15 K | 0.0367
in 1,2,4-trichlorobenzene, 323.15 K | 0.0502
in 1,2-dichlorobenzene, 273.15 K | 0.00343
in 1,2-dichlorobenzene, 279.15 K | 0.00486
in 1,2-dichlorobenzene, 283.65 K | 0.00624
in 1,2-dichlorobenzene, 289.15 K | 0.0086
in 1,2-dichlorobenzene, 293.25 K | 0.0106
in 1,2-dichlorobenzene, 298.65 K | 0.0142
in 1,2-dichlorobenzene, 303.25 K | 0.0182
in 1,2-dichlorobenzene, 309.05 K | 0.024
in 1,2-dichlorobenzene, 313.25 K | 0.0302
in 1,2-dichlorobenzene, 318.95 K | 0.0395
in 1,2-dichlorobenzene, 323.35 K | 0.0475
in THF, 273.65 K | 0.051
in THF, 279.15 K | 0.0594
in THF, 284.15 K | 0.0678
in THF, 289.15 K | 0.0773
in THF, 293.75 K | 0.0865
in THF, 299.15 K | 0.0986
in THF, 303.25 K | 0.109
in THF, 308.45 K | 0.123
in THF, 313.15 K | 0.137
in THF, 318.15 K | 0.152
in THF, 323.15 K | 0.169
in acetone, 273.15 K | 0.00762
in acetone, 279.15 K | 0.0102
in acetone, 283.45 K | 0.0124
in acetone, 289.05 K | 0.0159
in acetone, 293.05 K | 0.0186
in acetone, 297.65 K | 0.0229
in acetone, 302.85 K | 0.0282
in acetone, 308.05 K | 0.035
in acetone, 313.15 K | 0.0425
in acetone, 317.15 K | 0.0489
in acetone, 323.15 K | 0.0598
in acetonitrile, 273.15 K | 0.00152
in acetonitrile, 279.15 K | 0.00222
in acetonitrile, 283.45 K | 0.00283
in acetonitrile, 289.05 K | 0.00387
in acetonitrile, 293.05 K | 0.0049
in acetonitrile, 297.65 K | 0.00624
in acetonitrile, 302.85 K | 0.00815
in acetonitrile, 308.05 K | 0.0108
in acetonitrile, 313.15 K | 0.014
in acetonitrile, 317.15 K | 0.0168
in acetonitrile, 323.15 K | 0.0217
in cyclohexanone, 273.15 K | 0.0233
in cyclohexanone, 279.15 K | 0.0292
in cyclohexanone, 283.65 K | 0.0341
in cyclohexanone, 289.15 K | 0.041
in cyclohexanone, 293.25 K | 0.0471
in cyclohexanone, 298.65 K | 0.056
in cyclohexanone, 303.25 K | 0.0654
in cyclohexanone, 309.05 K | 0.0778
in cyclohexanone, 313.25 K | 0.09
in cyclohexanone, 318.95 K | 0.105
in cyclohexanone, 323.35 K | 0.119
in dichloromethane, 273.15 K | 0.0132
in dichloromethane, 279.15 K | 0.0179
in dichloromethane, 283.45 K | 0.0226
in dichloromethane, 289.05 K | 0.0287
in dichloromethane, 293.05 K | 0.0345
in dichloromethane, 297.65 K | 0.0425
in dichloromethane, 302.85 K | 0.0534
in dichloromethane, 308.05 K | 0.0657
in dichloromethane, 312.15 K | 0.0798
in ethanol, 273.15 K | 0.00127
in ethanol, 279.15 K | 0.00172
in ethanol, 283.45 K | 0.00215
in ethanol, 289.05 K | 0.00281
in ethanol, 293.05 K | 0.00342
in ethanol, 297.65 K | 0.00426
in ethanol, 302.85 K | 0.00543
in ethanol, 308.05 K | 0.00695
in ethanol, 313.15 K | 0.00863
in ethanol, 317.15 K | 0.0103
in ethanol, 323.15 K | 0.013
in ethyl acetate, 273.15 K | 0.00842
in ethyl acetate, 279.15 K | 0.0114
in ethyl acetate, 283.45 K | 0.0139
in ethyl acetate, 289.05 K | 0.0178
in ethyl acetate, 293.05 K | 0.0209
in ethyl acetate, 297.65 K | 0.0256
in ethyl acetate, 302.85 K | 0.0317
in ethyl acetate, 308.05 K | 0.0395
in ethyl acetate, 313.15 K | 0.0483
in ethyl acetate, 317.15 K | 0.0551
in ethyl acetate, 323.15 K | 0.0679
in isobutanol, 273.15 K | 0.000771
in isobutanol, 279.15 K | 0.00114
in isobutanol, 283.65 K | 0.00149
in isobutanol, 289.15 K | 0.00208
in isobutanol, 293.25 K | 0.00258
in isobutanol, 298.65 K | 0.00355
in isobutanol, 303.25 K | 0.00446
in isobutanol, 309.05 K | 0.00613
in isobutanol, 313.25 K | 0.00753
in isobutanol, 318.95 K | 0.0097
in isobutanol, 323.35 K | 0.0119
in isopropanol, 273.15 K | 0.000527
in isopropanol, 279.15 K | 0.000822
in isopropanol, 283.65 K | 0.00111
in isopropanol, 289.15 K | 0.00164
in isopropanol, 293.25 K | 0.00206
in isopropanol, 298.65 K | 0.00298
in isopropanol, 303.25 K | 0.00389
in isopropanol, 309.05 K | 0.00542
in isopropanol, 313.25 K | 0.00677
in isopropanol, 318.95 K | 0.00891
in isopropanol, 323.35 K | 0.0114
in methanol, 273.15 K | 0.00126
in methanol, 279.15 K | 0.00171
in methanol, 283.45 K | 0.00209
in methanol, 289.05 K | 0.00276
in methanol, 293.05 K | 0.00333
in methanol, 297.65 K | 0.00409
in methanol, 302.85 K | 0.00513
in methanol, 308.05 K | 0.00648
in methanol, 313.15 K | 0.00795
in methanol, 317.15 K | 0.00934
in methanol, 323.15 K | 0.0117
in n-butanol, 273.15 K | 0.00141
in n-butanol, 279.15 K | 0.00198
in n-butanol, 283.45 K | 0.00248
in n-butanol, 289.05 K | 0.00338
in n-butanol, 293.05 K | 0.00411
in n-butanol, 297.65 K | 0.00509
in n-butanol, 302.85 K | 0.00663
in n-butanol, 308.05 K | 0.00843
in n-butanol, 313.15 K | 0.0108
in n-butanol, 317.15 K | 0.0127
in n-butanol, 323.15 K | 0.0159
in n-octanol, 273.15 K | 0.00126
in n-octanol, 279.15 K | 0.00187
in n-octanol, 283.65 K | 0.00248
in n-octanol, 289.15 K | 0.00352
in n-octanol, 293.25 K | 0.00449
in n-octanol, 298.65 K | 0.00627
in n-octanol, 303.25 K | 0.00789
in n-octanol, 309.05 K | 0.011
in n-octanol, 313.25 K | 0.0136
in n-octanol, 318.95 K | 0.0178
in n-octanol, 323.35 K | 0.022
in n-pentanol, 273.65 K | 0.00163
in n-pentanol, 279.15 K | 0.00226
in n-pentanol, 284.15 K | 0.00291
in n-pentanol, 289.15 K | 0.00386
in n-pentanol, 293.75 K | 0.00479
in n-pentanol, 299.15 K | 0.00631
in n-pentanol, 303.25 K | 0.00766
in n-pentanol, 308.45 K | 0.00965
in n-pentanol, 313.15 K | 0.0121
in n-pentanol, 318.15 K | 0.0151
in n-pentanol, 323.15 K | 0.0185
in n-propanol, 273.15 K | 0.00136
in n-propanol, 279.15 K | 0.00187
in n-propanol, 283.45 K | 0.00232
in n-propanol, 289.05 K | 0.00313
in n-propanol, 293.05 K | 0.00383
in n-propanol, 297.65 K | 0.00476
in n-propanol, 302.85 K | 0.00606
in n-propanol, 308.05 K | 0.00781
in n-propanol, 313.15 K | 0.00991
in n-propanol, 317.15 K | 0.012
in n-propanol, 323.15 K | 0.015
in toluene, 273.15 K | 0.0043
in toluene, 279.15 K | 0.00586
in toluene, 283.65 K | 0.00732
in toluene, 289.15 K | 0.00959
in toluene, 293.25 K | 0.0114
in toluene, 298.65 K | 0.0149
in toluene, 303.25 K | 0.0182
in toluene, 309.05 K | 0.0231
in toluene, 313.25 K | 0.0273
in toluene, 318.95 K | 0.0337
in toluene, 323.35 K | 0.0398

Reference: BigSolDB 2.1
